Legend:
Format in all cases: cell-based
Serratia marcescens = assay: MIC against Gram-negative bacteria: Serratia marcescens; details: for MIC against S. marcescens / MIC (μg/mL) S. marcescens: 5×10^5 CFU/mL
Method in brief: (§1)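 Bacteria grown in LB at 37° C to McFarland 0.5, resuspended and seeded at 5×10^5 CFU/mL in 96-well plates. Purified human EGF-domain proteins two-fold serially diluted, triplicate wells; cultured at 37° C, shaking 175 rpm. MIC = lowest protein concentration with no growth.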

Enterobacter cloacae = assay: MIC against Gram-negative bacteria: Enterobacter cloacae; details: for MIC against E. cloacae / MIC (μg/mL) E. cloacae: 5×10^5 CFU/mL
Method in brief: as §1

E. coli BL21 = assay: MIC against Gram-negative bacteria: E. coli BL21; details: E. coli BL21; for MIC against E. coli BL21 / MIC (μg/mL) E. coli BL21: 5×10^5 CFU/mL
Method in brief: as §1

Aeromonas hydrophila = assay: MIC against Gram-negative bacteria: Aeromonas hydrophila; details: for MIC against A. hydrophila / MIC (μg/mL) A. hydrophila: 5×10^5 CFU/mL
Method in brief: as §1

Citrobacter diversus = assay: MIC against Gram-negative bacteria: Citrobacter diversus; details: for MIC against C. diversus / MIC (μg/mL) C. diversus: 5×10^5 CFU/mL
Method in brief: as §1

Moraxella catarrhalis = assay: MIC against Gram-negative bacteria: Moraxella catarrhalis; details: for MIC against M. catarrhalis / MIC (μg/mL) M. catarrhalis: 5×10^5 CFU/mL
Method in brief: as §1

E. coli DH5α = assay: Antibacterial activity: MIC and growth curve against E. coli DH5α in 96-well plate; details: minimal inhibitory concentration against E. coli DH5α; 96-well plate, 5×10^5 CFU/mL, 37° C., judged after 8 h
Method in brief: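 Log-phase DH5α (OD600 about 0.5, 37° C, 185 rpm in LB) was pelleted, resuspended in fresh LB and seeded at 5×10^5 CFU/mL with recombinant protein at 50, 25 and 12.5 μg/mL (two-fold series), in triplicate. Plates were shaken at 175 rpm, 37° C, and OD600 was read every 30 min. MIC was the lowest concentration with no growth.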

Klebsiella pneumonia = assay: MIC against Gram-negative bacteria: Klebsiella pneumonia; details: for MIC against K. pneumonia / MIC (μg/mL) K. pneumonia: 5×10^5 CFU/mL
Method in brief: as §1

Proteus mirabilis = assay: MIC against Gram-negative bacteria: Proteus mirabilis; details: for MIC against P. mirabilis / MIC (μg/mL) P. mirabilis: 5×10^5 CFU/mL
Method in brief: as §1

Proteus vulgaris = assay: MIC against Gram-negative bacteria: Proteus vulgaris; details: for MIC against P. vulgaris / MIC (μg/mL) P. vulgaris: 5×10^5 CFU/mL
Method in brief: as §1

Pseudomonas aeruginosa = assay: MIC against Gram-negative bacteria: Pseudomonas aeruginosa; details: for MIC against P. aeruginosa / MIC (μg/mL) P. aeruginosa: 5×10^5 CFU/mL
Method in brief: as §1

[1] = Serratia marcescens, 10 h cultivation at 37° C.
[2] = Enterobacter cloacae, 10 h cultivation at 37° C.
[3] = Aeromonas hydrophila, 10 h cultivation at 37° C.
[4] = Citrobacter diversus, 10 h cultivation at 37° C.
[5] = Moraxella catarrhalis, 10 h cultivation at 37° C.
[6] = Klebsiella pneumonia, 10 h cultivation at 37° C.
[7] = Proteus mirabilis, 10 h cultivation at 37° C.
[8] = Proteus vulgaris, 10 h cultivation at 37° C.
[9] = Pseudomonas aeruginosa, 10 h cultivation at 37° C.
[10] = Serratia marcescens, 96-well plate, 37° C., 10 h
[11] = Enterobacter cloacae, 96-well plate, 37° C., 10 h
[12] = Aeromonas hydrophila, 96-well plate, 37° C., 10 h
[13] = Citrobacter diversus, 96-well plate, 37° C., 10 h
[14] = Moraxella catarrhalis, 96-well plate, 37° C., 10 h
[15] = Klebsiella pneumonia, 96-well plate, 37° C., 10 h
[16] = Proteus mirabilis, 96-well plate, 37° C., 10 h
[17] = Proteus vulgaris, 96-well plate, 37° C., 10 h
[18] = Pseudomonas aeruginosa, 96-well plate, 37° C., 10 h
[19] = S. marcescens, 10 h cultivation at 37° C.
[20] = E. cloacae, 10 h cultivation at 37° C.
[21] = A. hydrophila, 10 h cultivation at 37° C.
[22] = C. diversus, 10 h cultivation at 37° C.
[23] = M. catarrhalis, 10 h cultivation at 37° C.
[24] = K. pneumonia, 10 h cultivation at 37° C.
[25] = P. mirabilis, 10 h cultivation at 37° C.
[26] = P. vulgaris, 10 h cultivation at 37° C.
[27] = P. aeruginosa, 10 h cultivation at 37° C.

PRT1438 (PVKSCSEPRCFNGGTCQQALYFSDFVCQCPEGFAGKCCE; listed as Homo sapiens)
MIC against S. marcescens (Serratia marcescens; [1]): 12.5 µg/mL
MIC against E. cloacae (Enterobacter cloacae; [2]): 12.5 µg/mL
MIC against E. coli BL21 (E. coli BL21; 10 h cultivation at 37° C.): 25 µg/mL
MIC against A. hydrophila (Aeromonas hydrophila; [3]): 25 µg/mL
MIC against C. diversus (Citrobacter diversus; [4]): 50 µg/mL
MIC against M. catarrhalis (Moraxella catarrhalis; [5]): 12.5 µg/mL
MIC (E. coli DH5α): 12.5 µg/mL
MIC against K. pneumonia (Klebsiella pneumonia; [6]): 25 µg/mL
MIC against P. mirabilis (Proteus mirabilis; [7]): 50 µg/mL
MIC against P. vulgaris (Proteus vulgaris; [8]): 25 µg/mL
MIC against P. aeruginosa (Pseudomonas aeruginosa; [9]): 50 µg/mL

PRT1343 (VFHECFFNPCHNSGTCQQLGRGYVCLCPLGYTGLKCE; listed as Homo sapiens)
MIC against S. marcescens (Serratia marcescens; [10]): 50 µg/mL
MIC against E. cloacae (Enterobacter cloacae; [11]): 25 µg/mL
MIC against E. coli BL21 (E. coli BL21; 96-well plate, 37° C., 10 h): 25 µg/mL
MIC against A. hydrophila (Aeromonas hydrophila; [12]): 12.5 µg/mL
MIC against C. diversus (Citrobacter diversus; [13]): 50 µg/mL
MIC against M. catarrhalis (Moraxella catarrhalis; [14]): 25 µg/mL
MIC (E. coli DH5α): 12.5 µg/mL
MIC against K. pneumonia (Klebsiella pneumonia; [15]): 25 µg/mL
MIC against P. mirabilis (Proteus mirabilis; [16]): 12.5 µg/mL
MIC against P. vulgaris (Proteus vulgaris; [17]): 25 µg/mL
MIC against P. aeruginosa (Pseudomonas aeruginosa; [18]): 50 µg/mL

PRT201 (NMSSCPLDSKGKVCSGHGVCSNEATCICDFTWAGTDCS; listed as Homo sapiens)
MIC (μg/mL) S. marcescens (Serratia marcescens; [19]): 25 µg/mL
MIC (μg/mL) E. cloacae (Enterobacter cloacae; [20]): 50 µg/mL
MIC (μg/mL) E. coli BL21 (E. coli BL21; 10 h cultivation at 37° C.): 12.5 µg/mL
MIC (μg/mL) A. hydrophila (Aeromonas hydrophila; [21]): 12.5 µg/mL
MIC (μg/mL) C. diversus (Citrobacter diversus; [22]): 50 µg/mL
MIC (μg/mL) M. catarrhalis (Moraxella catarrhalis; [23]): 12.5 µg/mL
MIC (E. coli DH5α): 50 µg/mL
MIC (μg/mL) K. pneumonia (Klebsiella pneumonia; [24]): 12.5 µg/mL
MIC (μg/mL) P. mirabilis (Proteus mirabilis; [25]): 25 µg/mL
MIC (μg/mL) P. vulgaris (Proteus vulgaris; [26]): 50 µg/mL
MIC (μg/mL) P. aeruginosa (Pseudomonas aeruginosa; [27]): 50 µg/mL

PRT112 (DINECTDFVDVPCSHFCNNFIGGYFCSCPPEYFLHDDMKNCG; listed as Homo sapiens)
MIC (μg/mL) S. marcescens (Serratia marcescens; [10]): 50 µg/mL
MIC (μg/mL) E. cloacae (Enterobacter cloacae; [11]): 12.5 µg/mL
MIC (μg/mL) E. coli BL21 (E. coli BL21; 96-well plate, 37° C., 10 h): 12.5 µg/mL
MIC (μg/mL) A. hydrophila (Aeromonas hydrophila; [12]): 12.5 µg/mL
MIC (μg/mL) C. diversus (Citrobacter diversus; [13]): 12.5 µg/mL
MIC (μg/mL) M. catarrhalis (Moraxella catarrhalis; [14]): 12.5 µg/mL
MIC (E. coli DH5α): 50 µg/mL
MIC (μg/mL) K. pneumonia (Klebsiella pneumonia; [15]): 12.5 µg/mL
MIC (μg/mL) P. mirabilis (Proteus mirabilis; [16]): 50 µg/mL
MIC (μg/mL) P. vulgaris (Proteus vulgaris; [17]): 12.5 µg/mL
MIC (μg/mL) P. aeruginosa (Pseudomonas aeruginosa; [18]): 50 µg/mL

PRT1022 (DIDECSEQPSVCGSHTICNNHPGTFRCECVEGYQFSDEGTCV; listed as Homo sapiens)
MIC (Serratia marcescens; [19]): 12.5 µg/mL
MIC (Enterobacter cloacae; [20]): 25 µg/mL
MIC (E. coli BL21; 10 h cultivation at 37° C.): 50 µg/mL
MIC (Aeromonas hydrophila; [21]): 25 µg/mL
MIC (Citrobacter diversus; [22]): 50 µg/mL
MIC (Moraxella catarrhalis; [23]): 12.5 µg/mL
MIC (E. coli DH5α): 12.5 µg/mL
MIC (Klebsiella pneumonia; [24]): 25 µg/mL
MIC (Proteus mirabilis; [25]): 50 µg/mL
MIC (Proteus vulgaris; [26]): 12.5 µg/mL
MIC (Pseudomonas aeruginosa; [27]): 12.5 µg/mL

PRT1382 (GVRSCPRGCSQRGRCKDGRCVCDPGYTGEDC; listed as Homo sapiens)
MIC against S. marcescens (Serratia marcescens; [1]): 12.5 µg/mL
MIC against E. cloacae (Enterobacter cloacae; [2]): 50 µg/mL
MIC against E. coli BL21 (E. coli BL21; 10 h cultivation at 37° C.): 12.5 µg/mL
MIC against A. hydrophila (Aeromonas hydrophila; [3]): 12.5 µg/mL
MIC against C. diversus (Citrobacter diversus; [4]): 50 µg/mL
MIC against M. catarrhalis (Moraxella catarrhalis; [5]): 12.5 µg/mL
MIC (E. coli DH5α): 25 µg/mL
MIC against K. pneumonia (Klebsiella pneumonia; [6]): 100 µg/mL
MIC against P. mirabilis (Proteus mirabilis; [7]): 12.5 µg/mL
MIC against P. vulgaris (Proteus vulgaris; [8]): 25 µg/mL
MIC against P. aeruginosa (Pseudomonas aeruginosa; [9]): 50 µg/mL

PRT1265 (DVDECLENNGGCQHTCVNVMGSYECCCKEGFFLSDNQHTCI; listed as Homo sapiens)
MIC against S. marcescens (Serratia marcescens; [10]): 12.5 µg/mL
MIC against E. cloacae (Enterobacter cloacae; [11]): 25 µg/mL
MIC against E. coli BL21 (E. coli BL21; 96-well plate, 37° C., 10 h): 50 µg/mL
MIC against A. hydrophila (Aeromonas hydrophila; [12]): 50 µg/mL
MIC against C. diversus (Citrobacter diversus; [13]): 25 µg/mL
MIC against M. catarrhalis (Moraxella catarrhalis; [14]): 12.5 µg/mL
MIC (E. coli DH5α): 25 µg/mL
MIC against K. pneumonia (Klebsiella pneumonia; [15]): 12.5 µg/mL
MIC against P. mirabilis (Proteus mirabilis; [16]): 12.5 µg/mL
MIC against P. vulgaris (Proteus vulgaris; [17]): 50 µg/mL
MIC against P. aeruginosa (Pseudomonas aeruginosa; [18]): 25 µg/mL

PRT946 (EVDECQNQPCQNGGTCIDLVNHFKCSCPPGTRGLLCE; listed as Homo sapiens)
MIC (Serratia marcescens; [19]): 50 µg/mL
MIC (Enterobacter cloacae; [20]): 50 µg/mL
MIC (E. coli BL21; 10 h cultivation at 37° C.): 12.5 µg/mL
MIC (Aeromonas hydrophila; [21]): 25 µg/mL
MIC (Citrobacter diversus; [22]): 12.5 µg/mL
MIC (Moraxella catarrhalis; [23]): 50 µg/mL
MIC (E. coli DH5α): 50 µg/mL
MIC (Klebsiella pneumonia; [24]): 12.5 µg/mL
MIC (Proteus mirabilis; [25]): 25 µg/mL
MIC (Proteus vulgaris; [26]): 12.5 µg/mL
MIC (Pseudomonas aeruginosa; [27]): 50 µg/mL

PRT1495 (KANCSTTCFNGGTCFYPGKCICPPGLEGE; listed as Homo sapiens)
MIC (μg/mL) S. marcescens (Serratia marcescens; [10]): 25 µg/mL
MIC (μg/mL) E. cloacae (Enterobacter cloacae; [11]): 12.5 µg/mL
MIC (μg/mL) E. coli BL21 (E. coli BL21; 96-well plate, 37° C., 10 h): 12.5 µg/mL
MIC (μg/mL) A. hydrophila (Aeromonas hydrophila; [12]): 12.5 µg/mL
MIC (μg/mL) C. diversus (Citrobacter diversus; [13]): 50 µg/mL
MIC (μg/mL) M. catarrhalis (Moraxella catarrhalis; [14]): 50 µg/mL
MIC (E. coli DH5α): 25 µg/mL
MIC (μg/mL) K. pneumonia (Klebsiella pneumonia; [15]): 25 µg/mL
MIC (μg/mL) P. mirabilis (Proteus mirabilis; [16]): 50 µg/mL
MIC (μg/mL) P. vulgaris (Proteus vulgaris; [17]): 25 µg/mL
MIC (μg/mL) P. aeruginosa (Pseudomonas aeruginosa; [18]): 25 µg/mL

PRT143 (PRNPCRMSCQNHGRLNISTCHCHCPPGYTGRYCQ; listed as Homo sapiens)
MIC (μg/mL) S. marcescens (Serratia marcescens; [10]): 25 µg/mL
MIC (μg/mL) E. cloacae (Enterobacter cloacae; [11]): 12.5 µg/mL
MIC (μg/mL) E. coli BL21 (E. coli BL21; 96-well plate, 37° C., 10 h): 12.5 µg/mL
MIC (μg/mL) A. hydrophila (Aeromonas hydrophila; [12]): 12.5 µg/mL
MIC (μg/mL) C. diversus (Citrobacter diversus; [13]): 12.5 µg/mL
MIC (μg/mL) M. catarrhalis (Moraxella catarrhalis; [14]): 50 µg/mL
MIC (E. coli DH5α): 12.5 µg/mL
MIC (μg/mL) K. pneumonia (Klebsiella pneumonia; [15]): 12.5 µg/mL
MIC (μg/mL) P. mirabilis (Proteus mirabilis; [16]): 25 µg/mL
MIC (μg/mL) P. vulgaris (Proteus vulgaris; [17]): 12.5 µg/mL
MIC (μg/mL) P. aeruginosa (Pseudomonas aeruginosa; [18]): 12.5 µg/mL
